Measurements: patent US12304912B2, “Fused bicyclic RAF inhibitors and methods for use thereof” (Jazz Pharmaceuticals Ireland Limited, priority 2020, dated 2025)

Key:
[1] = tested on: BRAF monomers in A375 cells; test: A375 AlphaLISA SureFire pERK1/2 cellular assay (monomer); type: cell-based; details: Homo sapiens, A-375; A375 cells, 1 hr; read-out: pERK A375 (1 hr) pIC50 (converted)
How it was run: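 BRAF^V600E A375 melanoma cells seeded at 30,000/well in DMEM with 10% FBS, dosed without medium exchange in a 10-point series from 10 μM at 1/2-log steps, 1 h at 37 °C. Phospho-ERK1/2 (Thr202/Tyr204) measured in lysates by AlphaLISA SureFire; absolute IC50 relative to DMSO control.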

[2] = tested on: RAF dimers in HCT-116 cells; test: HCT-116 AlphaLISA SureFire pERK1/2 cellular assay (dimer); type: cell-based; details: Homo sapiens, HCT-116; HCT116 cells pre-dosed with 1 μM Encorafenib, 1 hr; read-out: pERK HCT116 dimer (1 hr) pIC50 (converted)
How it was run: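 HCT-116 (KRAS G13D) cells, 30,000/well, pretreated 1 h with 1 μM Encorafenib to induce RAF dimers, washed, then dosed 1 h at 37° C with compound (10-point, top 10 μM, 1/2 log steps) in growth medium. pERK1/2 (T202/Y204) measured by AlphaLISA SureFire; absolute IC50 versus DMSO control.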

[3] = Microsomal stability assay, human liver microsomes (HLM); type: in vitro ADME; details: 0.5 mg/mL protein, 1 μM substrate
How it was run: (§1)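 Half-life and CLint come from the ln(% remaining)–time slope, with remaining compound quantified by LC-MS/MS after ice-cold solvent quench of timed samples. Incubations used 1 μM test compound and 0.5 mg·mL^−1 human or mouse liver microsomal protein at 37° C.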

[4] = Microsomal stability assay, mouse liver microsomes (MLM); type: in vitro ADME; details: 0.5 mg/mL protein, 1 μM substrate
How it was run: as §1

[5] = Plasma protein binding assay, human plasma (hPPB); type: in vitro ADME; details: 5 μM, equilibrium dialysis 4 hours 37° C.
How it was run: (§2)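 Equilibrium dialysis of 5 μM compound in previously frozen human or mouse plasma against phosphate buffer, 4 h at 37 °C. Both chambers quantified by LC-MS/MS; % free = (1−((PC−PF)/PC))×100.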

[6] = Plasma protein binding assay, mouse plasma (mPPB); type: in vitro ADME; details: 5 μM, equilibrium dialysis 4 hours 37° C.
How it was run: as §2

[7] = Solubility (Sol), medium not stated; type: physicochemical; details: cells not marked (FESSIF)

| Compound | IC50 [1] [nM] | IC50 [2] [nM] | microsomal CLint at 1 μM [3] [µL/min/mg] | microsomal CLint at 1 μM [4] [µL/min/mg] | hPPB (% free) [5] [% free] | mPPB (% free) [6] [% free] | Sol [7] [mg/L] |
| --- | --- | --- | --- | --- | --- | --- | --- |
| O=C1CCc2c(Oc3ccc4c(c3)CC(c3nc(-c5cccc(F)c5)c[nH]3)CO4)ccnc2N1 (stereo not drawn) [Compound 15, 5-[3-[4-(3-fluorophenyl)-1H-imidazol-2-yl]chroman-6-yl]oxy-3,4-dihydro-1H-1,8-naphthyridin-2-one] | 24 | 67.6 | 39.9 | 33.9 | 0.2 | 1.3 | <1.1 |
| COc1cccc(-c2c[nH]c(C3COc4ccc(Oc5ccnc6c5CCC(=O)N6)cc4C3)n2)c1 (stereo not drawn) [Compound 13, 5-[3-[4-(3-methoxyphenyl)-1H-imidazol-2-yl]chroman-6-yl]oxy-3,4-dihydro-1H-1,8-naphthyridin-2-one] | 35.5 | 123 | 77.1 | 114 | 0.7 | 1.2 | <1.2 |
| O=C1CCc2c(Oc3ccc4c(c3)CC(c3nc(-c5cc(F)ccc5F)c[nH]3)CO4)ccnc2N1 (stereo not drawn) [Compound 5, 5-[3-[4-(2,5-difluorophenyl)-1H-imidazol-2-yl]chroman-6-yl]oxy-3,4-dihydro-1H-1,8-naphthyridin-2-one] | 186 | 191 | 33.9 | 28.5 | 0.3 | 0.4 | <1.2 |
| O=C1CCc2c(Oc3ccc4c(c3)CN(C(=O)Nc3ccccc3C(F)(F)F)CC4)ccnc2N1 [Compound 49] | 7760 | 8910 | 82.2 | 83.6 | 1.9 | 2.5 | <1.2 |
| COc1cncc(-c2c[nH]c(C3COc4ccc(Oc5ccnc6c5CCC(=O)N6)cc4C3)n2)c1 (stereo not drawn) [Compound 17, 5-[3-[4-(5-methoxy-3-pyridyl)-1H-imidazol-2-yl]chroman-6-yl]oxy-3,4-dihydro-1H-1,8-naphthyridin-2-one] | 933 | 347 | 31.5 | 16.5 | 0.7 | 2.4 | <1.2 |
| CN(C)Cc1cc(C(F)(F)F)cc2nc(C3COc4ccc(Oc5ccnc6c5CCC(=O)N6)cc4C3)[nH]c12 (stereo not drawn) [Compound 33] | 380 | 661 | 77.3 | 37 | 2 | 3.1 | 7 |
